Patent US5204470A, “Azabicyclic derivatives” (John Wyeth & Brother, Limited, priority 1990, dated 1993)

How the values were obtained:
5-HT3 receptors [1] = biological target: T1, 5-HT3 receptors (Oryctolagus cuniculus, UniProt A0A5F9C9J3); assay: 5-HT3 antagonist activity in the isolated right atrium of the rabbit heart; type: cell-based; conditions: antagonism of 5-HT evoked increase in spontaneous rate of beating, read-out: apparent pKB (converted)
T1 construct: isolated right atrium of the rabbit heart; from tissue; host or cells: rabbit isolated right atrium (sympathetic nerve terminals)
T1 sequence (A0A5F9C9J3 1-494): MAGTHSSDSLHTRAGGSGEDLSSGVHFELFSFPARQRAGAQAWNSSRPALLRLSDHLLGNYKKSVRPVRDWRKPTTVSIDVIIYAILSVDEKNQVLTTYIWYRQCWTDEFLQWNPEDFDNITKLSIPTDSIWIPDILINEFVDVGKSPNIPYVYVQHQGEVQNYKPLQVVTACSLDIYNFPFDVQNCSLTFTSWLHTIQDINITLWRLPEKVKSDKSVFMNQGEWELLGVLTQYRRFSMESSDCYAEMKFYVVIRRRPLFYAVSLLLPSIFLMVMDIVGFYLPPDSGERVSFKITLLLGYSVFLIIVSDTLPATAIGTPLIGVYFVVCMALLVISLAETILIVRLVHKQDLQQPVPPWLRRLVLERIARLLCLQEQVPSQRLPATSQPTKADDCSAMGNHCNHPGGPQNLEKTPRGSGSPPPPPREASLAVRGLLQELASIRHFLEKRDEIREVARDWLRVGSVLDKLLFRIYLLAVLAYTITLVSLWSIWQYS
Method: The compounds of the invention are also tested for 5-HT3 antagonist activity in the isolated right atrium of the rabbit heart based upon the method of Fozard J. R., Naunyn-Schmiedeberg's Arch. Pharmacol., 1984, 326, 36-44. This procedure relies upon the ability of 5-HT to stimulate 5-HT3 receptors present on symphetic nerve terminals in the heart, causing release of noradrenaline which evokes an increase in the spontaneous rate of beating. The antagonist potency is expressed in a similar manner to that of the preceding test method i.e. as an apparent pKB.

5-HT3 receptors [2] = biological target: T2, 5-HT3 receptors (Rattus norvegicus, UniProt P35563); assay: 5-HT3 receptor antagonism in the isolated vagus nerve of the rat (5-HT induced depolarization); type: cell-based; conditions: isolated rat cervical vagus nerve; antagonism of 5-HT induced depolarization; estimated from 5-HT concentration ratios; read-out: apparent pKB (converted)
T2 construct: isolated vagus nerve of the rat; from tissue; host or cells: rat isolated (cervical) vagus nerve
T2 sequence (P35563 24-483): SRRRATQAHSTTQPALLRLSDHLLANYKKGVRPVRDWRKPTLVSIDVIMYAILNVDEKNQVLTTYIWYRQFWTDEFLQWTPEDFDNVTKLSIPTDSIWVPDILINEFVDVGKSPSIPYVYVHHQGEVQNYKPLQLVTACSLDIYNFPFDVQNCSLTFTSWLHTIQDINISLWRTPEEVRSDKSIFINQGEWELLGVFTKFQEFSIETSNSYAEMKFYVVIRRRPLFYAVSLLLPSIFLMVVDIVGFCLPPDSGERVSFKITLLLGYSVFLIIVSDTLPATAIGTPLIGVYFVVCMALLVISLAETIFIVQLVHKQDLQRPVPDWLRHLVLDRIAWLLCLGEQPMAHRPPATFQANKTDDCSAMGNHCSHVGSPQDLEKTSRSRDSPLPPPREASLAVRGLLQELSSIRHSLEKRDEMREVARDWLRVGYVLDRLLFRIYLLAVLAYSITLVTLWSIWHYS
Method: The compounds of the invention are tested for 5-HT3 receptor antagonism in the isolated vagus nerve of the rat by a method based upon that of Ireland S. J. and Tyers M. B., Brit. J. Pharmacol., 1987, 90, 229-238. The procedure relies upon the ability of 5-HT to induce depolarization of neurones in the cervical vagus nerve by a direct action on 5-HT3 receptors. A concentration-response curve to 5-HT induced depolarization is obtained and the antagonists are added to the bath containing the isolated nerve before repeating the 5-HT concentration-response curve. Antagonist potency is estimated for the 5-HT concentration ratios and expressed as an apparent pKB value (where KB is the antagonist dissociation constant).

CN1C2C=C(Cc3ccc4ccccc4n3)CC1CC2 (centres unmarked) [Example 2, 3-(2-Quinolinylmethyl)-8-methyl-8-azabicyclo[3.2.1]oct-2-ene]
Kb (5-HT3 receptors [1]): 2.51 nM
Kb (5-HT3 receptors [2]): 63.1 nM
